This is an account of results in PMC4413215, “New Prenylated Aeruginosin, Microphycin, Anabaenopeptin and Micropeptin Analogues from a Microcystis Bloom Material Collected in Kibbutz Kfar Blum, Israel” (Marine Drugs, 2015).

One experiment addresses chymotrypsin (Bos taurus, UniProt P00766). The experiment can be described thus: Protease inhibition assay: chymotrypsin. It is filed as biochemical. The following applies: for inhibition of chymotrypsin, in words: discussion of Table 5. On the procedure:
(§1) Optical rotation values were obtained on a Jasco P-1010 polarimeter at the sodium D line (589 nm; concentrations are reported in g/100 mL. UV spectra were recorded on an Agilent 8453 spectrophotometer (Santa Clara, California, CA, USA). IR spectra were recorded on a Bruker Tensor 27 FT-IR instrument (Billerica, Massachusetts, MA, USA). NMR spectra were recorded on a Bruker DRX-500 spectrometer at 500.13 MHz for ^1H and 125.76 MHz for ^13C and a Bruker Avance 400 Spectrometer at 400.13 MHz for ^1H, 100.62 MHz for ^13C (Billerica, Massachusetts, MA, USA). DEPT, COSY-45, gTOCSY, gROESY, gHSQC, gHMQC and gHMBC spectra were recorded using standard Bruker pulse sequences. Mass spectra and MS/MS analyses were recorded on a Waters MaldiSynapt instrument (Milford, Massachusetts, MA, USA). HPLC separations were performed on a Jasco HPLC system (Halifax, Nova-Scotia, NS, Canada) (Model PU-2080-plus pump, Model LG-2080-04 Quaternary gradient unit and Model MD-2010-plus Multi-wavelength detector). An Elisa ELx808 reader (Bio-Tek Instruments, Inc (Winooski, VT, USA)) was used for protease inhibition assays.
(§2) The procedures used to determine the inhibitory activity of the new compounds on trypsin and chymotrypsin were described in a previous paper. The range of concentrations used in the assays was between 45.5 μM and 0.011 μM.

The target in experiment [1] is T1, trypsin (Bos taurus, UniProt P00760).
T1 sequence (P00760 24-246): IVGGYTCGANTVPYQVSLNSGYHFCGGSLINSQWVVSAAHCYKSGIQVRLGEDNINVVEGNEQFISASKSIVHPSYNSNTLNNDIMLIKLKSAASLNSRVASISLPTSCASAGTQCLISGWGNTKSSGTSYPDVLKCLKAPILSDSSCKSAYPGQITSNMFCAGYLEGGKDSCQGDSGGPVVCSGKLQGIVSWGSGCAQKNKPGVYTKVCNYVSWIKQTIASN
The arrangement: method as in PMID 22280481. The following applies: read-out: IC50 (against trypsin); cited from earlier work.

Experiment [2] addresses T1, trypsin. The experiment can be described thus: Protease inhibition assay: trypsin. It is filed as biochemical. Particulars: discussion of Table 5. On the procedure:
as §1, §2

pIC50: −log10 of the molar value. Like-named read-outs stand apart in the source and are kept apart here. *1 amine or outer side, *2 acyl side, *3 side chain or, on linkers, in order; H or OH if unused. Where a SMILES comes first, the peptide text is derived from it. Bridges are numbered along the chain shown (N, C = ends). [ ]: non-standard residue; d: D form. NMehTyr = CN[C@@H](CCc1ccc(O)cc1)C(=O)O; hPhe = N[C@@H](CCc1ccccc1)C(=O)O; CO = O=C([*:1])[*:2] Bounds are passed on as bounds.

A word on the pIC50: it is the negative decadic logarithm of the IC50, by convention in mol/L. On to `CC[C@H](C)[C@@H]1NC(=O)[C@H](NC(=O)N[C@@H](CCCNC(=N)N)C(=O)O)CCCCNC(=O)[C@H]([C@@H](C)CC)NC(=O)[C@H](CCc2ccc(O)cc2)N(C)C(=O)[C@H](CCc2ccccc2)NC1=O` [Anabaenopeptin KB906 (3), Anabaenopeptin KB906] ({Arg-CO}-[dK]I[hPhe][NMehTyr]I; lactam 1-C), for which the pIC50 on chymotrypsin was less than 4.34.

For the compound `NC(N)=NCCCCNC(=O)[C@H]1C[C@H]2CC[C@@H](O)C[C@H]2N1C(=O)[C@@H](Cc1ccccc1)NC(=O)[C@H](O)Cc1ccc(O)cc1` [aeruginosin KT608B], on trypsin [1], the pIC50 was 5.89.

On chymotrypsin, `CCCCCC(=O)N[C@@H](CC(=O)OC)C(=O)N[C@@H]1C(=O)N[C@@H](CCCNC(=N)N)C(=O)N[C@H]2CC[C@@H](OC)N(C2=O)[C@@H](C(C)C)C(=O)N(C)[C@@H](Cc2ccccc2)C(=O)N[C@@H]([C@@H](C)CC)C(=O)O[C@@H]1C` [Micropeptin KB984 (9), Micropeptin KB984] had a pIC50 of less than 4.34.

In the case of `CCCCCC(=O)N[C@@H](CC(=O)OC)C(=O)N[C@@H]1C(=O)N[C@@H](CCCNC(=N)N)C(=O)N[C@H]2CC[C@@H](OC)N(C2=O)[C@@H](C(C)C)C(=O)N(C)[C@@H](Cc2ccccc2)C(=O)N[C@@H](C(C)C)C(=O)O[C@@H]1C` [Micropeptin KB970C (10), Micropeptin KB970C], on chymotrypsin, the pIC50 was less than 4.34.

In turn, `CCCCCC(=O)N[C@@H](CC(=O)OC)C(=O)N[C@@H]1C(=O)N[C@@H](CCCNC(=N)N)C(=O)N[C@H]2CC[C@@H](O)N(C2=O)[C@@H](C(C)C)C(=O)N(C)[C@@H](Cc2ccccc2)C(=O)N[C@@H]([C@@H](C)CC)C(=O)O[C@@H]1C` [Micropeptin KB970A (7), Micropeptin KB970A] gave a pIC50 against chymotrypsin of less than 4.34.

As to `CCCCCC(=O)N[C@@H](CC(=O)OC)C(=O)N[C@@H]1C(=O)N[C@@H](CCCNC(=N)N)C(=O)N[C@H]2CC[C@@H](OC)N(C2=O)[C@@H]([C@@H](C)CC)C(=O)N(C)[C@@H](Cc2ccc(O)c(Cl)c2)C(=O)N[C@@H]([C@H](C)CC)C(=O)O[C@@H]1C` [Micropeptin KB1048 (11), Micropeptin KB1048], on chymotrypsin, the pIC50 is 6.20 and the “inhibition of chymotrypsin, in words” value is reported as “inhibition of chymotrypsin”.

In the case of `CC[C@H](C)[C@H]1C(=O)N(C)[C@@H](Cc2ccccc2)C(=O)N[C@@H](C(C)C)C(=O)O[C@H](C)[C@H](NC(=O)[C@H](CC(N)=O)NC(=O)[C@H](O)Cc2ccc(O)cc2)C(=O)N[C@@H](CC(C)C)C(=O)N[C@H]2CC[C@@H](OC)N1C2=O` [Micropeptin KB992 (12), Micropeptin KB992], on chymotrypsin, the pIC50 is 6.06 and the “inhibition of chymotrypsin, in words” value is on record as “inhibition of chymotrypsin”.

On to `CC(C)C[C@@H]1NC(=O)[C@@H]2CCCN2C(=O)[C@H](C)NC(=O)[C@H](CCC(N)=O)NC(=O)[C@H](C)NC(=O)[C@H](Cc2ccccc2)NC(=O)[C@H](Cc2ccccc2)NC(=O)[C@H](Cc2ccccc2)NC1=O` [Microphycin KB921 (2), Microphycin KB921] (cyclo(APLFFFAQ)), for which, on chymotrypsin, the pIC50 was less than 4.34.

With `CCCC(=O)N[C@@H](CC(=O)O)C(=O)N[C@@H]1C(=O)N[C@@H](CCCNC(=N)N)C(=O)N[C@H]2CC[C@@H](O)N(C2=O)[C@@H](C(C)C)C(=O)N(C)[C@@H](Cc2ccccc2)C(=O)N[C@@H]([C@@H](C)CC)C(=O)O[C@@H]1C` [Micropeptin KB928 (5), Micropeptin KB928], the pIC50 at chymotrypsin is less than 4.34.

In general, IC50 refers to the point on the concentration scale where inhibition reaches its midpoint. For `CC(C)=CCN(CCCCNC(=O)C1CC2CCC(O)CC2N1C(=O)C(Cc1ccccc1)NC(=O)C(O)Cc1ccc(O)cc1)C(=N)N` (centres unmarked) [Aeruginosin KB676 (1), Aeruginosin KB676], the “inhibition of trypsin, in words” value against trypsin [2] is listed as “weak inhibitory activity”. In addition, the IC50 at chymotrypsin (concentration range 45.5 μM to 0.011 μM, read-out: Chymotrypsin (IC50 in μM)) was more than 45.5 µM.

At chymotrypsin, `CCCC(=O)N[C@@H](CC(=O)OC)C(=O)N[C@@H]1C(=O)N[C@@H](CCCNC(=N)N)C(=O)N[C@H]2CC[C@@H](OC)N(C2=O)[C@@H](C(C)C)C(=O)N(C)[C@@H](Cc2ccccc2)C(=O)N[C@@H]([C@@H](C)CC)C(=O)O[C@@H]1C` [Micropeptin KB956 (6), Micropeptin KB956] gave a pIC50 of less than 4.34.

For `CCCCCC(=O)N[C@@H](CC(=O)O)C(=O)N[C@@H]1C(=O)N[C@@H](CCCNC(=N)N)C(=O)N[C@H]2CC[C@@H](OC)N(C2=O)[C@@H](C(C)C)C(=O)N(C)[C@@H](Cc2ccccc2)C(=O)N[C@@H]([C@@H](C)CC)C(=O)O[C@@H]1C` [Micropeptin KB970B (8), Micropeptin KB970B], the pIC50 against chymotrypsin was less than 4.34.

As for `CC[C@H](C)[C@@H]1NC(=O)[C@H](Cc2ccccc2)N(C)C(=O)[C@H](C(C)C)N2C(=O)[C@H](CC[C@H]2O)NC(=O)[C@H](C[C@H]2C=C[C@H](O)CC2)NC(=O)[C@@H](NC(=O)[C@H](CCC(N)=O)NC(=O)[C@H](O)Cc2ccc(O)cc2)[C@@H](C)OC1=O` [Micropeptin KB1046 (13), Micropeptin KB1046], at chymotrypsin, the pIC50 was 6.66 and the “inhibition of chymotrypsin, in words” value is given as “inhibition of chymotrypsin”.
